Literature values as cited in US9358209B2, “Econazole composition and methods of treatment therewith” (Exeltis USA Dermatology, Inc., priority 2010, dated 2016).

Legend:
dermatophytes and yeasts = conditions: most strains of E. floccosum, M. audouinii, M. canis, M. gypseum, T. mentagrophytes, T. rubrum, T. tonsurans, C. albicans, M. furfur
[1] = Liao et al., Yao Xue Xue Bao 28(1):22-7 (1993)

Row | SMILES | activity against dermatophytes and yeasts (dermatophytes and yeasts) | antifungal activity relative to other stereoisomer [1]
1 | Clc1ccc(COC(Cn2ccnc2)c2ccc(Cl)cc2Cl)cc1 (centres unmarked) [Econazole nitrate] | has shown activity | 
2 | Clc1ccc(CO[C@@H](Cn2ccnc2)c2ccc(Cl)cc2Cl)cc1 [(R)-(−)-econazole] |  | greater antifungal activity
